According to paper PMC10176470, “Engaging a Non-catalytic Cysteine Residue Drives Potent and Selective Inhibition of Caspase-6” (Journal of the American Chemical Society, 2023):

Key:
caspase-3 (C3) = target: T1, caspase-3 (C3) (Homo sapiens, UniProt P42574); assay: Caspase-3 biochemical activity assay with fluorogenic substrate; details: read-out: Casp-3 IC50
T1 sequence (P42574 29-175 limits assumed): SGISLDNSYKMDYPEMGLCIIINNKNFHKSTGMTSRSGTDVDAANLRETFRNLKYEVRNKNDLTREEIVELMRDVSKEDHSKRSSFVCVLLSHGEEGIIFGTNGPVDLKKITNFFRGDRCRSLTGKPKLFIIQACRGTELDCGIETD
From the text: Error bars represent the standard deviation of thre replicate measurements. […] Activity measured by the cleavage of aminofluorocoumarin-labeled peptides (see the Supporting Information for sequences). C = caspase.

[1] = tested on: lamin A cleavage by caspase-6 in SK-N-AS cells; assay: Lamin cleavage assay (in-cell western after staurosporine induction); type: cell-based; details: Homo sapiens, 1 h compound then 10 μM staurosporine
C6 small subunit = target: T2, C6 small subunit (Homo sapiens, UniProt P55212); assay: Disulfide tethering assay (% labeling by LC/MS), small subunit; type: binding
T2 construct: 194-293-Leu-Glu-His6 (SS) from caspase-6 cDNA (Origene); Leu-Glu-His6 (C); made in house; host or cells: E. coli Rosetta 2 pLysS DE3

C6 large subunit = target: T3, C6 large subunit (Homo sapiens, UniProt P55212); assay: Disulfide tethering assay (% labeling by LC/MS), large subunit; type: binding
T3 construct: Residues 30-179 (LS); made in house; host or cells: E. coli Rosetta 2 pLysS DE3
T3 sequence (P55212 30-179): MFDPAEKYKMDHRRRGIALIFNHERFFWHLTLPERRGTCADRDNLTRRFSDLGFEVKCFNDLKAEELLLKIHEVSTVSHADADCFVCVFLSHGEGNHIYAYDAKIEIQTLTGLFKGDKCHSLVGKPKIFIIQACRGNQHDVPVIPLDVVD
T3 sequence (P55212 194-293): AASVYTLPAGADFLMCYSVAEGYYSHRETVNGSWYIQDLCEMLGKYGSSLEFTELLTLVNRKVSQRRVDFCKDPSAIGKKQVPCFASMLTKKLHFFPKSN

T2 sequence (P55212 194-293): as above
T2 sequence (P55212 30-179): as the sequence (P55212 30-179) above

IC50 (caspase-3 (C3)) [µM] | IC50 [1] [µM] | C6 % labeling (MS) small subunit (C6 small subunit) [%] | C6 % labeling (MS) large subunit (C6 large subunit) [%] | SMILES
> 500 | 14.2 ± 2.4 |  |  | C=CS(=O)(=O)N1CCC[C@@H](C(=O)Nc2ccc(OC(F)(F)F)cc2)C1 [2a]
 |  | 76 | 2 | O=C(NCCS)[C@H]1CCCN(C(=O)Cc2ccc(OC(F)(F)F)cc2)C1 [compound 1]
> 500 |  |  |  | C=CS(=O)(=O)N1C[C@H](C(=O)Nc2ccc(OC(F)(F)F)cc2)C[C@H](c2ccccc2)C1 (racemic) [(±)-3-c]

SMILES | IC50 (caspase-3 (C3)) [µM] | IC50 [1] [µM] | C6 % labeling (MS) small subunit (C6 small subunit) [%] | C6 % labeling (MS) large subunit (C6 large subunit) [%]
C=CS(=O)(=O)N1C[C@H](C(=O)Nc2ccc(OC(F)(F)F)cc2)C[C@@H](c2ccccc2)C1 (racemic) [(±)-3-t] | > 500 |  |  | 
